Assays:
AT2 Receptor (AT2R) = AT2 Receptor (AT2R) (Homo sapiens (Human), UniProt P50052); test: Measurement of inhibitory activity on AT2 receptor (Tag-lite HTRF, Tb-labeled AT2R cells, angiotensin receptor red agonist); assay type: binding; conditions: 1 h room temperature
AT1 Receptor (AT1R) = AT1 Receptor (AT1R) (Homo sapiens (Human), UniProt P30556); test: Measurement of inhibitory activity on AT1 receptor (Tag-lite HTRF, Tb-labeled AT1R cells, angiotensin receptor red agonist); assay type: binding; conditions: 1 h room temperature
Experimental: Measurement of Inhibitory Activity on AT1 Receptor ([…])/AT2 Receptor (AT2R)
Through the following steps, the inhibitory activity of the compound on AT1R/AT2R (IC50 value) was determined:
1) An appropriate amount of 1×TLB (Tag-lite Buffer) was prepared and well mixed for use.
2) The compound was diluted by 10 times with ddH2O or DMSO. The compound was then dilute to 4 times of the working concentration with 1×TLB and mixed well for use.
3) 8600 nM Tag-lite angiotensin receptor red agonist was diluted to 12 nM (4×Kd) with 1×TLB.
4) 5 ml 1×TLB was taken into a 15 ml centrifuge tube.
5) After thawing 1 tube of Tb-labeled AT1R/AT2R cells in a 37° C. water bath, the cells were quickly transferred to the 1×TLB in step 4), mixed gently, and centrifuged at 1200 g for 5 minutes at room temperature.
6) The supernatant was aspirated gently, and the cells were resuspended and mixed in 2.7 ml 1×TLB, and then placed at room temperature until use.
7) 10 μl cells were added to all test wells, and 5 μl 4× working solution of the compound from step 2) was added to the corresponding test wells. 5 μl 4× Tag-lite angiotensin receptor red agonist well diluted in step 3) was added to all test wells.
8) After leaving the reaction plate at room temperature for 1 h, data were measured and analyzed using Envision HTRF Reader, and the half inhibitory concentration (IC50) of the compound on AT1R/AT2R was calculated with the GraphPad Prism four-parameter equation.

Chain of AT1 Receptor (AT1R) (P30556 whole entry): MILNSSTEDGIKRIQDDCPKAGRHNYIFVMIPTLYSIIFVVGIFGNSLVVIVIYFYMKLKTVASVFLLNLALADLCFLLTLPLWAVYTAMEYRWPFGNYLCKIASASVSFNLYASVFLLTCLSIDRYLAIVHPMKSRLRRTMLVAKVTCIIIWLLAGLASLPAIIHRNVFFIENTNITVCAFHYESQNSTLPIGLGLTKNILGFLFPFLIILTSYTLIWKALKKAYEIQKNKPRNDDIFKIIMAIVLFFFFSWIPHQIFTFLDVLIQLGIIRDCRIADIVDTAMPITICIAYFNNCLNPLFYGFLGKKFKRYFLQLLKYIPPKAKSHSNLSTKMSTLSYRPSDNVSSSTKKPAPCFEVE
Chain of AT2 Receptor (AT2R) (P50052 whole entry): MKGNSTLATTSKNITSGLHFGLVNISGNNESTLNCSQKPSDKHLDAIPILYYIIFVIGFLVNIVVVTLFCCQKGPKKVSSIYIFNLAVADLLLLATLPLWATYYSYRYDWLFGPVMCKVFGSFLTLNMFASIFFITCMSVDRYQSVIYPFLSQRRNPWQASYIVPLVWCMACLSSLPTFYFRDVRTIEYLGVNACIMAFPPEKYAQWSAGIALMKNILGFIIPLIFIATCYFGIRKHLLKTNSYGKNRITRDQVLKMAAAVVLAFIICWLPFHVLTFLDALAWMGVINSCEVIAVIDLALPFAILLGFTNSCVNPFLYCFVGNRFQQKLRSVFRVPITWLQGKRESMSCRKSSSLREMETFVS

| Compound | IC50 (AT2 Receptor (AT2R)) | IC50 (AT1 Receptor (AT1R)) |
| --- | --- | --- |
| O=C(O)[C@@H]1C2CCC(CC2OCc2ccccc2)N1C(=O)C(c1ccccc1)c1ccccc1 (stereo in doubt) [Compound C283, (1S,3S,4S)-5-(benzyloxy)-2-(2,2-diphenylacetyl)-2-azabicyclo[2.2.2]octane-3-carboxylic acid] | 46.3 nM | > 10000 nM |
| O=C(O)[C@@H]1[C@H]2CC[C@@H](CN1C(=O)C(c1ccccc1)c1ccccc1)N2C(=O)C(c1ccccc1)c1ccccc1 [Compound C1, (1R,2S,5S)-3,8-bis(2,2-diphenylacetyl)-3,8-diazabicyclo[3.2.1]octane-2-carboxylic acid] | 6.67 nM | > 10000 nM |
| O=C(O)[C@@H]1[C@H]2CC[C@@H](CN1C(=O)N(c1ccccc1)c1ccccc1)N2C(=O)N(c1ccccc1)c1ccccc1 [Compound C5, (1R,2S,5S)-3,8-bis (diphenylcarbamoyl)-3,8-diazabicyclo [3.2.1]octane-2-carboxylic acid] | 15.3 nM | > 10000 nM |
| O=C(O)[C@@H]1[C@H]2CC[C@@H](CN1C(=O)N1c3ccccc3C=Cc3ccccc31)N2C(=O)C(c1ccccc1)c1ccccc1 [Compound C10, (1R,2S,5S)-3-(5H-dibenzo[b,f]azepine-5-carbonyl)-8-(2,2-diphenylacetyl)-3,8-diazabicyclo [3.2.1]octane-2-carboxylic acid] | 58.8 nM | > 10000 nM |
| O=C(O)[C@@H]1[C@H]2CC[C@@H](CN1C(=O)N(c1ccccc1)c1ccccc1)N2C(=O)C(c1ccccc1)c1ccccc1 [Compound C12, (1R,2S,5S)-8-(2,2-diphenylacetyl)-3-(diphenylcarbamoyl)-3,8-diazabicyclo [3.2.1]octane-2-carboxylic acid] | 17.1 nM | > 10000 nM |
| O=C(O)[C@H]1[C@@H]2CC[C@H](CN1C(=O)N(c1ccccc1)c1ccccc1)N2C(=O)N(c1ccccc1)c1ccccc1 [Compound C14, (1S,2R,5R)-3,8-bis (diphenylcarbamoyl)-3,8-diazabicyclo [3.2.1]octane-2-carboxylic acid] | 29.4 nM | > 10000 nM |
| O=C(O)[C@@H]1[C@H]2CC[C@@H](CN1C(=O)C(c1ccccc1)c1ccccc1)N2C(=O)OCc1ccccc1 [Compound C34, (1R,2S,5S)-8-((benzyloxy)carbonyl)-3-(2,2-diphenylacetyl)-3,8-diazabicyclo[3.2.1]octane-2-carboxylic acid] | 35.2 nM | > 10000 nM |
| O=C(O)[C@@H]1[C@H]2CC[C@@H](CN1C(=O)N(c1ccccc1)c1ccccc1)N2C(=O)OCc1ccccc1 [Compound C37, (1R,2S,5S)-8-((benzyloxy)carbonyl)-3-(diphenylcarbamoyl)-3,8-diazabicyclo [3.2.1]octane-2-carboxylic acid] | 55.3 nM | > 10000 nM |
| O=C(O)[C@H]1[C@@H]2CC[C@H](CN1C(=O)N1c3ccccc3C=Cc3ccccc31)N2C(=O)C(c1ccccc1)c1ccccc1 [Compound C71, (1S,2R,5R)-3-(5H-dibenzo[bf]azepine-5-carbonyl)-8-(2,2-diphenylacetyl)-3,8-diazabicyclo[3. 2.1]octane-2-carboxylic acid] | 50.4 nM | > 10000 nM |
| O=C(O)[C@@H]1[C@H]2CC[C@@H](CN1C(=O)C(c1ccccc1)c1ccccc1)N2C(=O)NCc1ccccc1 [Compound C78, (1R,2S,5S)-8-(benzylcarbamoyl)-3-(2,2-diphenylacetyl)-3,8-diazabicyclo[3. 2.1]octane-2-carboxylic acid] | 55 nM | > 10000 nM |
| O=C(O)[C@@H]1[C@H]2CC[C@@H](CN1C(=O)C(c1ccccc1)c1ccccc1)N2C(=O)Oc1ccccc1 [Compound C79, (1R,2S,5S)-3-(2,2-diphenylacetyl)-8-(phenoxycarbonyl)-3,8-diazabicyclo[3.2.1]octane-2-carboxylic acid] | 24.6 nM | > 10000 nM |
| CN(Cc1ccccc1)C(=O)N1[C@H]2CC[C@@H]1[C@@H](C(=O)O)N(C(=O)C(c1ccccc1)c1ccccc1)C2 [Compound C82, (1R,2S,5S)-8-(benzyl(methyl)carbamoyl)-3-(2,2-diphenylacetyl)-3,8-diazabicyclo[3.2.1]octane-2-carboxylic acid] | 3.98 nM | > 10000 nM |
| O=C(O)[C@@H]1[C@H]2CC[C@@H](CN1C(=O)C(c1ccccc1)c1ccccc1)N2C(=O)Nc1ccccc1 [Compound C83, (1R,2S,5S)-3-(2,2-diphenylacetyl)-8-(phenylcarbamoyl)-3,8-diazabicyclo [3.2.1]octane-2-carboxylic acid] | 18.1 nM | > 10000 nM |
| CN(Cc1ccccc1)C(=O)N1[C@H]2CC[C@@H]1[C@@H](C(=O)O)N(C(=O)N(c1ccccc1)c1ccccc1)C2 [Compound C112, (1R,2S,5S)-8-(benzyl(methyl)carbamoyl)-3-(diphenylcarbamoyl)-3,8-diazabicyclo [3.2.1]octane-2-carboxylic acid] | 21.5 nM | > 10000 nM |
| CN(C)[C@@H](Cc1ccccc1)C(=O)N1[C@H]2CC[C@@H]1[C@@H](C(=O)O)N(C(=O)N(c1ccccc1)c1ccccc1)C2 [Compound C269, (1R,2S,5S)-8-((S)-2-(dimethylamino)-3-phenylpropionyl)-3-(diphenylcarbamoyl)-3,8-diazabicyclo [3.2.1]octane-2-carboxylic acid] | 68.2 nM |  |
| CN(Cc1cc2ccccc2s1)C(=O)N1[C@H]2CC[C@@H]1[C@@H](C(=O)O)N(C(=O)N(c1ccccc1)c1ccccc1)C2 [Compound C271] | 14.5 nM |  |
| CCN(Cc1sccc1C)C(=O)N1[C@H]2CC[C@@H]1[C@@H](C(=O)O)N(C(=O)N(c1ccccc1)c1ccccc1)C2 [Compound C272, (1R,2S,5S)-3-(diphenylcarbamoyl)-8-(ethyl((3-methylthiophen-2-yl)methyl)carbamoyl)-3,8-diazabicyclo [3.2.1]octane-2-carboxylic acid] | 16.6 nM |  |
| CCN(Cc1cc(C)cs1)C(=O)N1[C@H]2CC[C@@H]1[C@@H](C(=O)O)N(C(=O)N(c1ccccc1)c1ccccc1)C2 [Compound C273, (1R,2S,5S)-3-(diphenylcarbamoyl)-8-(ethyl((4-methylthiophen-2-yl)methyl)carbamoyl)-3,8-diazabicyclo [3.2.1]octane-2-carboxylic acid] | 20.9 nM |  |
| CCN(Cc1csc(Cl)c1)C(=O)N1[C@H]2CC[C@@H]1[C@@H](C(=O)O)N(C(=O)N(c1ccccc1)c1ccccc1)C2 [Compound C274, (1R,2S,5S)-8-(((5-chlorothiophene-3-yl)methyl) (ethyl)carbamoyl)-3-(diphenylcarbamoyl)-3,8-diazabicyclo [3.2.1]octane-2-carboxylic acid] | 19.8 nM |  |
| Cc1cc(CN(C)C(=O)N2[C@H]3CC[C@@H]2[C@@H](C(=O)O)N(C(=O)C(c2ccccc2)c2ccccc2)C3)cs1 [Compound C277, (1R,2S,5S)-3-(2,2-diphenylacetyl)-8-(methyl((5-methylthiophen-3-yl)methyl)carbamoyl)-3,8-diazabicyclo [3.2.1]octane-2-carboxylic acid] | 10.5 nM |  |
| CCN(Cc1ccc(C)s1)C(=O)N1[C@H]2CC[C@@H]1[C@@H](C(=O)O)N(C(=O)C(c1ccccc1)c1ccccc1)C2 [Compound C278, (1R,2S,5S)-3-(2,2-diphenylacetyl)-8-(ethyl((5-methylthiophen-2-yl)methyl)carbamoyl)-3,8-diazabicyclo [3.2.1]octane-2-carboxylic acid] | 10.6 nM |  |
| CN(Cc1csc2ccccc12)C(=O)N1[C@H]2CC[C@@H]1[C@@H](C(=O)O)N(C(=O)C(c1ccccc1)c1ccccc1)C2 [Compound C279] | 24.2 nM |  |
| CCN(Cc1ccc(Cl)s1)C(=O)N1[C@H]2CC[C@@H]1[C@@H](C(=O)O)N(C(=O)N(c1ccccc1)c1ccccc1)C2 [Compound C281, (1R,2S,5S)-8-(((5-chlorothiophene-2-yl)methyl) (ethyl)carbamoyl)-3-(diphenylcarbamoyl)-3,8-diazabicyclo[3.2.1] octane-2-carboxylic acid] | 20.3 nM |  |
| O=C(O)[C@@H]1[C@@H]2CC[C@@H](CC2Oc2ccc([N+](=O)[O-])cc2)N1C(=O)C(c1ccccc1)c1ccccc1 (stereo partly drawn) [Compound C290, (1S,3S,4S)-2-(2,2-diphenyl-acetyl)-5-(4-nitrophenoxy)-2-azabicyclo [2.2.2]octane-3-carboxylic acid] | 561 nM |  |
| O=C(O)[C@@H]1[C@@H]2CC[C@@H](CC2OCc2cccc(Cl)c2)N1C(=O)C(c1ccccc1)c1ccccc1 (stereo partly drawn) [Compound C291, (1S,3S,4S)-5-((3-chloro-benzyl)oxy)-2-(2,2-diphenylacetyl)-2-azabicyclo [2.2.2]octane-3-carboxylic acid] | 765 nM |  |
| O=C(O)[C@@H]1[C@@H]2CC[C@@H](CC2OCc2ccccc2Cl)N1C(=O)C(c1ccccc1)c1ccccc1 (stereo partly drawn) [Compound C294, (1S,3S,4S)-5-((2-chloro-benzyl)oxy)-2-(2,2-diphenylacetyl)-2-azabicyclo [2.2.2]octane-3-carboxylic acid] | 666 nM |  |
| (1R,2S,5S)-3- (2,2-diphenylacetyl)- 8-(((2-fluorobenzyl) oxy)carbonyl)- 3,8-diazabicyclo [3.2.1]octane-2- carboxylic acid [Compound C35] | 36.6 nM |  |

— patent US11453690B2, “Receptor inhibitor, pharmaceutical composition comprising same, and use thereof” (BEIJING TIDE PHARMACEUTICAL CO., LTD., priority 2018, dated 2022)
